For orientation: EC50 means the midpoint of the concentration-response curve.

The target in this test is AMPK α1β1γ1 (Homo sapiens (Human), UniProt Q13131+Q9Y478). Briefly: in vitro AMPK activation assay (ADP Glo Luminescence Kinase test). In kind it is biochemical. To be noted: for Emax: maximal achievable activation in the tested concentration range, percent of control max (positive control without test substance = 100%), read-out: AMPK α1β1γ1 PoCmax; for EC50: recombinant human AMPK alpha1/beta1/gamma1, ADP-Glo luminescence read-out. Here is the method: Recombinant human AMPK (containing subunits alpha1, beta1 and gamma1) was obtained from a baculovirus expression system. The 3 subunits were expressed together, affinity-purified via a GST-tag fused to the alpha 1 subunit and deep-frozen in storage buffer (50 mM Tris-HCl pH 8, 300 mM NaCl, 1 mM TCEP and 10% glycerol) at −80° C. until use. The activity of the AMPK protein was determined using the ADP Glo® Luminescence Kinase test (Promega; V9103X). In this homogeneous test the amount of ADP formed by the kinase reaction is quantified by a luciferin-luciferase reaction using luminescence as read-out. The luminescence signal obtained correlates with the amount of ADP resulting from the kinase reaction and thus correlates with the activity of the protein kinase.
Sequence of AMPK α1β1γ1 (Q13131 whole entry, the tested form may be a part): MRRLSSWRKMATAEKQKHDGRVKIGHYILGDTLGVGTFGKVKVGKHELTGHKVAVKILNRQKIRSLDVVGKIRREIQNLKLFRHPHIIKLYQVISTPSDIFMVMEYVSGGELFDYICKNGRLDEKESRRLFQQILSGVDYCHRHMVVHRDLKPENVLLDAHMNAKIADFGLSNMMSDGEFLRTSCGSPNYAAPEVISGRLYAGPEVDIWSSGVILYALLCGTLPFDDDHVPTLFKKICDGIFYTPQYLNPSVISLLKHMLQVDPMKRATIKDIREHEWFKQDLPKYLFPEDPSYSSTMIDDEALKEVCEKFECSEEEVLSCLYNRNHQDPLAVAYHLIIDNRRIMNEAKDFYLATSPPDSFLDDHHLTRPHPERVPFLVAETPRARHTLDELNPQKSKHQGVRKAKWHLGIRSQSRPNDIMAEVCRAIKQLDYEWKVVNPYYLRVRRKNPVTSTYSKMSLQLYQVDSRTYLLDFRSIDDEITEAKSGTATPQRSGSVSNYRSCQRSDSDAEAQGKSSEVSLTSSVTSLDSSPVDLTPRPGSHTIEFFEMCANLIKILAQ
Sequence of AMPK α1β1γ1 (Q9Y478 whole entry, the tested form may be a part): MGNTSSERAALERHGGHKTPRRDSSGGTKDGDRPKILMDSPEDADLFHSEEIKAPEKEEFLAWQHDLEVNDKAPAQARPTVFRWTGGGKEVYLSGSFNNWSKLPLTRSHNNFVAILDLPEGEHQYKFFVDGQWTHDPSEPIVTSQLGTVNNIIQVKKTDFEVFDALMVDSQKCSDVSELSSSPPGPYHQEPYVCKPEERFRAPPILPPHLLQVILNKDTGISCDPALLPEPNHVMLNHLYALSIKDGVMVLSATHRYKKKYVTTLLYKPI
Sequence of AMPK α1β1γ1 (P54619 whole entry partner, the tested form may be a part): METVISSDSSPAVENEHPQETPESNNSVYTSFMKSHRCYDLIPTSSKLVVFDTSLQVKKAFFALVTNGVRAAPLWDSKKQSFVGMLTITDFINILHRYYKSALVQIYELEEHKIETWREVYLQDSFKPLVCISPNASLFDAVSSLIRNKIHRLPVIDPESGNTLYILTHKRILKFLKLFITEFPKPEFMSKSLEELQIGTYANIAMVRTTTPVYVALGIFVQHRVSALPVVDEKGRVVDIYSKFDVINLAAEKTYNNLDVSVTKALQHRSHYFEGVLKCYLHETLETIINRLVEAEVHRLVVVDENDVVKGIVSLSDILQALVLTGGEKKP
The test compounds were dissolved in 100% DMSO at a concentration of 10 mM and in a first step diluted in DMSO to a concentration of 5 mM, followed by serial dilution steps in 100% DMSO. Dilution factor and number of dilution steps may vary. Typically 8 different concentrations by 1:5 dilutions were prepared, further dilutions of the substances were carried out with test buffer (20 mM Hepes (pH 7.0), 15 mM MgCl2, 0.025% BSA, 0.01% Brij 35) until a concentration was reached which was 5 times above the final test concentration. 2 μl aliquots of these dilutions were transferred into a 384-well Optiplate (Perkin Elmer, #6007290). Typically the start concentration for serial dilutions in the assay is 10 μM. Typically AMPK was diluted to 25 μg/ml in the test buffer and 4 μl of this dilution were used in the kinase test (final concentration of AMPK is 10 μg/ml in a total volume of 10 μl for the kinase reaction). Kinase concentrations may vary depending on activity of the preparation batches. After 10 minutes incubation at room temperature 4 μl of a mix containing 2.5 μM substrate (H-His-Met-Arg-Ser-Ala-Met-Ser-Gly-Leu-His-Leu-Val-Lys-Arg-Arg-OH Trifluoroacetate salt/HMRSAMSGLHLVKRR from Bachem, Cat. No. H5938) and 75 μM ATP in test buffer were added to each well and the incubation was continued for 60 minutes at room temperature.
Positive controls are the reaction mixtures that contain no test substance; negative controls (blanks) are reaction mixtures that contain no AMPK enzyme.
After 60 minutes, 10 μl ADP-Glo® solution (ADP-Glo Reagent #V912B Promega) (heated to room temperature) were added to each well and incubation was continued for 40 minutes. Then 20 μl Kinase detection mix (Detection Buffer #V913B Promega; Kinase Detection Substrate #V914B Promega) were added and incubated for additional 40 minutes at room temperature.
All incubations were done in sealed plates in the dark.
The plates were read with an Envision Luminescence Reader (Perkin-Elmer).
Data Evaluation and Calculation:
The output file of the reader is a csv file that contains the well number and measured RLU. For data evaluation and calculation, the measurement of the negative control was set as 0% control and the measurement of the positive control was set as 100% control. Based on these values the % value for the measurement of each substance concentration was calculated using Assay Explorer software (Accelrys). Activating compounds achieve % of control values above 100%. The IC50 values were calculated from the % control values using Assay Explorer software. Calculation: [y=(a−d)/(1+(x/c)^b)+d], a=low value, d=high value; x=conc M; c=IC50 M; b=hill; y=% ctrl. The maximal achievable activation of a compound in the tested concentration range is reported as percent of control max (PoCmax).
(In general: ADP-Glo first removes unused ATP, then detects ADP through luciferase.)

For `CS(C)(=O)=Nc1ccc(-c2ccc(-c3nc4[nH]c(O[C@@H]5CO[C@H]6[C@@H]5OC[C@H]6O)nc4cc3Cl)c(F)c2F)cc1` [Example 9, ({4-[4-(2-{[(3R,3aR,6R,6aR)-6-Hydroxy-hexahydrofuro[3,2-b]furan-3-yl]oxy}-6-chloro-3H-imidazo[4,5-b]pyridin-5-yl)-2,3-difluorophenyl]phenyl}imino)dimethyl-λ^6-sulfanone], the Emax was 700% and the EC50 was 282 nM.

Turning to `CS(C)(=O)=Nc1ccc(-c2ccc(-c3nc4[nH]c(O[C@@H]5CO[C@H]6[C@@H]5OC[C@H]6O)nc4cc3Cl)c(F)c2)cc1` [Example 7, ({4-[4-(2-{[(3R,3aR,6R,6aR)-6-Hydroxy-hexahydrofuro[3,2-b]furan-3-yl]oxy}-6-chloro-3H-imidazo[4,5-b]pyridin-5-yl)-3-fluorophenyl]phenyl}imino)dimethyl-λ^6-sulfanone], the Emax turned out to be 640% and the EC50 turned out to be 125 nM.

For `CS(C)(=O)=Nc1ccc(-c2cc(F)c(-c3nc4nc(O[C@@H]5CO[C@H]6[C@@H]5OC[C@H]6O)[nH]c4cc3F)c(F)c2)cc1` [Example 16, ({4-[4-(2-{[(3R,3aR,6R,6aR)-6-Hydroxy-hexahydrofuro[3,2-b]furan-3-yl]oxy}-6-fluoro-1H-imidazo[4,5-b]pyridin-5-yl)-3,5-difluorophenyl]phenyl}imino)dimethyl-λ^6-sulfanone], the Emax came out at 475% and the EC50 was 74 nM.

Consider `CS(C)(=O)=Nc1ccc(-c2ccc(-c3nc4[nH]c(O[C@@H]5CO[C@H]6[C@@H]5OC[C@H]6O)nc4cc3Cl)cc2)cc1F` [Example 1, ({4-[4-(2-{[(3R,3aR,6R,6aR)-6-Hydroxy-hexahydrofuro[3,2-b]furan-3-yl]oxy}-6-chloro-3H-imidazo[4,5-b]pyridin-5-yl)phenyl]-2-fluorophenyl}imino)dimethyl-λ^6-sulfanone], for which the Emax was 540% and the EC50 was determined as 284 nM.

Turning to `CS(C)(=O)=Nc1ccc(-c2ccc(-c3nc4[nH]c(O[C@@H]5CO[C@H]6[C@@H]5OC[C@H]6O)nc4cc3Cl)cc2)c(F)c1F` [Example 6, ({4-[4-(2-{[(3R,3aR,6R,6aR)-6-Hydroxy-hexahydrofuro[3,2-b]furan-3-yl]oxy}-6-chloro-3H-imidazo[4,5-b]pyridin-5-yl)phenyl]-2,3-difluorophenyl}imino)dimethyl-λ^6-sulfanone], the Emax came out at 490% and the EC50 was determined as 450 nM.

`CS(C)(=O)=Nc1cc(F)c(-c2ccc(-c3nc4[nH]c(O[C@@H]5CO[C@H]6[C@@H]5OC[C@H]6O)nc4cc3Cl)cc2)cc1F` [Example 3, ({4-[4-(2-{[(3R,3aR,6R,6aR)-6-Hydroxy-hexahydrofuro[3,2-b]furan-3-yl]oxy}-6-chloro-3H-imidazo[4,5-b]pyridin-5-yl)phenyl]-2,5-difluorophenyl}imino)dimethyl-λ^6-sulfanone]: the Emax is 480% and the half-maximal effective concentration (EC50) came out at 302 nM.

Take `CS(C)(=O)=Nc1ccc(-c2ccc(-c3nc4[nH]c(O[C@@H]5CO[C@H]6[C@@H]5OC[C@H]6O)nc4cc3Cl)cc2)c(F)c1` [Example 5, ({4-[4-(2-{[(3R,3aR,6R,6aR)-6-Hydroxy-hexahydrofuro[3,2-b]furan-3-yl]oxy}-6-chloro-3H-imidazo[4,5-b]pyridin-5-yl)phenyl]-3-fluorophenyl}imino)dimethyl-λ^6-sulfanone]: the Emax is 538% and the EC50 came to 60 nM.

As to `CS(C)(=O)=Nc1cnc(-c2ccc(-c3nc4[nH]c(O[C@@H]5CO[C@H]6[C@@H]5OC[C@H]6O)nc4cc3Cl)cc2)c(F)c1` [Example 10, ({6-[4-(2-{[(3R,3aR,6R,6aR)-6-Hydroxy-hexahydrofuro[3,2-b]furan-3-yl]oxy}-6-chloro-3H-imidazo[4,5-b]pyridin-5-yl)phenyl]-5-fluoropyridin-3-yl}imino)dimethyl-λ^6-sulfanone], the Emax was determined as 479% and the EC50 came out at 193 nM.

As to `CS(C)(=O)=Nc1c(F)cc(-c2ccc(-c3nc4[nH]c(O[C@@H]5CO[C@H]6[C@@H]5OC[C@H]6O)nc4cc3Cl)cc2)cc1F` [Example 4, ({4-[4-(2-{[(3R,3aR,6R,6aR)-6-Hydroxy-hexahydrofuro[3,2-b]furan-3-yl]oxy}-6-chloro-3H-imidazo[4,5-b]pyridin-5-yl)phenyl]-2,6-difluorophenyl}imino)dimethyl-λ^6-sulfanone], the Emax was 421% and the EC50 stood at 3560 nM.

Turning to `CS(C)(=O)=Nc1cc(F)c(-c2ccc(-c3nc4[nH]c(O[C@@H]5CO[C@H]6[C@@H]5OC[C@H]6O)nc4cc3Cl)cc2)c(F)c1` [Example 2, ({4-[4-(2-{[(3R,3aR,6R,6aR)-6-Hydroxy-hexahydrofuro[3,2-b]furan-3-yl]oxy}-6-chloro-3H-imidazo[4,5-b]pyridin-5-yl)phenyl]-3,5-difluorophenyl}imino)dimethyl-λ^6-sulfanone], the Emax is 496% and the EC50 was 115 nM.

Consider `CS(=N)(=O)c1ccc(-c2ccc(-c3nc4[nH]c(O[C@@H]5CO[C@H]6[C@@H]5OC[C@H]6O)nc4cc3Cl)cc2)c(F)c1` (stereo partly drawn) [Example 13, {4-[4-(2-{[(3R,3aR,6R,6aR)-6-Hydroxy-hexahydrofuro[3,2-b]furan-3-yl]oxy}-6-chloro-3H-imidazo[4,5-b]pyridin-5-yl)phenyl]-3-fluorophenyl}(imino)methyl-λ^6-sulfanone], for which the Emax was found to be 523%.

For `COc1nc(-c2ccc(N=S(C)(C)=O)cc2)ccc1-c1nc2[nH]c(O[C@@H]3CO[C@H]4[C@@H]3OC[C@H]4O)nc2cc1Cl` [Example 11, ({4-[5-(2-{[(3R,3aR,6R,6aR)-6-Hydroxy-hexahydrofuro[3,2-b]furan-3-yl]oxy}-6-chloro-3H-imidazo[4,5-b]pyridin-5-yl)-6-methoxypyridin-2-yl]phenyl}imino)dimethyl-λ^6-sulfanone], the Emax stood at 423% and the EC50 was found to be 1200 nM.

In the case of `CS(C)(=O)=Nc1ccc(-c2ccc(-c3nc4nc(O[C@@H]5CO[C@H]6[C@@H]5OC[C@H]6O)[nH]c4cc3F)cc2)cc1` [Example 12, ({4-[4-(2-{[(3R,3aR,6R,6aR)-6-Hydroxy-hexahydrofuro[3,2-b]furan-3-yl]oxy}-6-fluoro-1H-imidazo[4,5-b]pyridin-5-yl)phenyl]phenyl}imino)dimethyl-λ^6-sulfanone], the Emax is 608% and the EC50 came out at 109 nM.

With `CS(C)(=O)=Nc1ccc(-c2cc(F)c(-c3nc4nc(O[C@@H]5CO[C@H]6[C@@H]5OC[C@H]6O)[nH]c4cc3Cl)c(F)c2)cc1` [Example 17, ({4-[4-(2-{[(3R,3aR,6R,6aR)-6-Hydroxy-hexahydrofuro[3,2-b]furan-3-yl]oxy}-6-chloro-1H-imidazo[4,5-b]pyridin-5-yl)-3,5-difluorophenyl]phenyl}imino)dimethyl-λ^6-sulfanone], the Emax was 475% and the EC50 was 84 nM.

For the compound `COc1nc(-c2ccc(N=S(C)(C)=O)cc2F)ccc1-c1nc2[nH]c(O[C@@H]3CO[C@H]4[C@@H]3OC[C@H]4O)nc2cc1Cl` [Example 15, ({4-[5-(2-{[(3R,3aR,6R,6aR)-6-Hydroxy-hexahydrofuro[3,2-b]furan-3-yl]oxy}-6-chloro-3H-imidazo[4,5-b]pyridin-5-yl)-6-methoxypyridin-2-yl]-3-fluorophenyl}imino)dimethyl-λ^6-sulfanone], the Emax is 426% and the EC50 worked out at 344 nM.

For the compound `CS(C)(=O)=Nc1ccc(-c2ccc(-c3nc4nc(O[C@@H]5CO[C@H]6[C@@H]5OC[C@H]6O)[nH]c4cc3F)cc2)c(F)c1` [Example 14, ({4-[4-(2-{[(3R,3aR,6R,6aR)-6-Hydroxy-hexahydrofuro[3,2-b]furan-3-yl]oxy}-6-fluoro-1H-imidazo[4,5-b]pyridin-5-yl)phenyl]-3-fluorophenyl}imino)dimethyl-λ^6-sulfanone], the Emax stood at 484% and the EC50 amounted to 68 nM.

The values are drawn from patent US10053471B2, “Azabenzimidazole derivatives” (Boehringer Ingelheim International GmbH, priority 2015, dated 2018).
